These are literature values, as cited in patent US12071516B2, “Polymeric stabilizing formulations” (Nano Precision Medical, Inc., priority 2014, dated 2024).

Turning to `OCCN1CCN(CCCN2c3ccccc3Sc3ccc(C(F)(F)F)cc32)CC1` [Fluphenazine], the water solubility result was “limited water solubility”.
